Common to all, as to test: NCI tumour cell line growth inhibition, 48 h
Test [1] concerns TK-10.
In test [2] the test system is MCF7.
Test [3] relates to Hs-578T.
Test [4] deals with ACHN.
For test [5], the system named is RXF 393.
The subject of test [6] is SF-539.
Test [7] concerns HCT-116.
Test [8] relates to KM12.
Test [9] deals with CAKI-1.
Test [10] deals with SK-MEL-28.
Test [11] concerns A549.
Test [12] relates to NCI/ADR-RES.
Test [13] relates to NCI-H522.
Test [14] deals with SNB-19.
Test [15] relates to HCT-15.
The test system of test [16] is SN12C.
Test [17] deals with IGROV-1.
Test [18] deals with SF-295.
The subject of test [19] is HOP-92.
Test [20] has as its system SW-620.

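Briefly, cells in 96-well plates were exposed to five compound concentrations for 48 h, and endpoints were estimated by linear interpolation. GI50 is the concentration that inhibits growth by half.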 Activity calls are given as the source filed them. Rule as the data show it: active = GI50 up to about 1.1 µM and inactive = higher.

In the case of `CN(C)Cc1cc(C(F)(F)F)ccc1C(O)(c1ccccc1)c1ccccc1`, the GI50 in test [1] is 17.2 µM (inactive); in test [2] it was 14.3 µM (inactive); in test [3], 26.9 µM (inactive); in test [4], 16.3 µM (inactive); in test [5] it was 11.8 µM (inactive); in [6] it was 17 µM (inactive). Moreover, the GI50 is 13 µM (inactive) in [7]; 16.9 µM (inactive) in test [8]; 12.8 µM (inactive) in [9]; 14.9 µM (inactive) in test [10]; 15 µM (inactive) in test [11]; 15.2 µM (inactive) in test [12]. Moreover, the GI50 is 15.6 µM (inactive) in test [13]; 16.7 µM (inactive) in [14]; 14.7 µM in test [15]; 15.4 µM (inactive) in test [16]; 15.9 µM (inactive) in test [17]; 17.9 µM (inactive) in test [18]. Further, the GI50 was 13.6 µM (inactive) in test [19] and 17.3 µM (inactive) in [20].

For `CCON=C1C(C)(C)C(C)(C)C(C)(C)C1(C)C`, the GI50 in test [1], in test [2], in test [3], in [4], in test [5] and in [6] was > 100 µM (inactive) each time. The GI50 in test [7], in test [8], in test [9], in test [10], in test [11] and in test [12] was > 100 µM (inactive) each time. For the same molecule, the GI50 was > 100 µM (inactive) in test [13]; > 100 µM (inactive) in test [14]; above 100 µM in test [15]; > 100 µM (inactive) in [16]; > 100 µM (inactive) in [17]; > 100 µM (inactive) in [18]. The GI50 in test [19] and in test [20] was > 100 µM (inactive) in each case.

Regarding `Cc1c(C(=O)O)sc2nc[nH]c(=O)c12`, the GI50 in test [1] is > 100 µM (inactive); in [2], > 100 µM (inactive); in test [3], 22.6 µM (inactive); in test [4], > 100 µM (inactive); in test [5] it was > 100 µM (inactive); in test [6], > 100 µM (inactive). Further, the GI50 in test [7] is > 100 µM (inactive); in test [8], > 100 µM (inactive); in test [9] it was 50.2 µM (inactive); in test [10], > 100 µM (inactive); in test [11], > 100 µM (inactive); in test [12], > 100 µM (inactive). The GI50 in [13] is > 100 µM (inactive); in test [14], > 100 µM (inactive); in test [15], above 100 µM; in test [16] it was > 100 µM (inactive); in [17], 84.1 µM (inactive); in test [18] it was > 100 µM (inactive). Moreover, the GI50 in test [19] is 67.1 µM (inactive); in test [20], > 100 µM (inactive).

`COc1ccc(SCc2cc(OC)c(OC)c(OC)c2)cc1OC`: the GI50 in test [1] is > 91.4 µM (inactive); in [2], 28.8 µM (inactive); in test [3] it was 54 µM (inactive); in test [4] it was 51.8 µM (inactive); in test [5], > 95.5 µM (inactive); in test [6] it was > 80.2 µM (inactive). Also, the GI50 is 61.7 µM (inactive) in test [7]; 37.5 µM (inactive) in test [8]; 44.5 µM (inactive) in test [9]; > 73.8 µM (inactive) in [10]; 43.8 µM (inactive) in test [11]; 32.4 µM (inactive) in test [12]. Also, the GI50 in [13] is 53.6 µM (inactive); in [14], > 81.1 µM (inactive); in [15], 34 µM; in [16] it was > 100 µM (inactive); in [17], 80.4 µM (inactive); in test [18] it was 45.7 µM (inactive). The values for the GI50 in [19] and in [20] were 25.6 µM (inactive) and 82.6 µM (inactive), respectively.

For `CC1(C2(C)OC(=O)c3ccccc32)OC(=O)c2ccccc21` (stereo not given), the GI50 in test [1] was > 100 µM (inactive); in test [2] it was > 100 µM (inactive); in [3] it was 72.6 µM (inactive); in test [4], > 100 µM (inactive); in test [5] it was > 100 µM (inactive); in [6], > 100 µM (inactive). Also, the GI50 in [7], in [8], in test [9], in test [10], in [11] and in test [12] was > 100 µM (inactive) each time. In addition, the GI50 in test [13] was 35.9 µM (inactive); in test [14] it was > 100 µM (inactive); in [15], above 100 µM; in test [16] it was > 100 µM (inactive); in test [17] it was > 100 µM (inactive); in [18] it was > 100 µM (inactive). Also, the GI50 in test [19] and in [20] was > 100 µM (inactive) each time.

As for `CC(=O)c1csc2c1C(=O)c1scc(C(C)=O)c1C2=O`, the GI50 in test [1] is 2.54 µM (inactive); in test [2], 1.38 µM (inactive); in test [3], 2.74 µM (inactive); in test [4], 1.68 µM (inactive); in test [5] it was 2.13 µM (inactive); in [6], 1.82 µM (inactive). The GI50 in test [7] is 2.15 µM (inactive); in test [8] it was 1.73 µM (inactive); in test [9], 2.22 µM (inactive); in test [10] it was 1.97 µM (inactive); in test [11], 1.97 µM (inactive); in test [12], 1.61 µM (inactive). Moreover, the GI50 in [13] was 0.52 µM (active); in [14], 1.8 µM (inactive); in [15] it was 1.62 µM; in test [16] it was 1.7 µM (inactive); in [17], 1.57 µM (inactive); in test [18] it was 1.66 µM (inactive). Further, the GI50 in [19] is 2 µM (inactive); in test [20] it was 1.94 µM (inactive).

`Cc1ccc(S(=O)(=O)N/N=C2\CCCCCCCCCCC2CN(C)C)cc1` (stereo not given): the GI50 in test [1] was 14.4 µM (inactive); in [2], 17 µM (inactive); in test [3] it was 15 µM (inactive); in test [4], 20.1 µM (inactive); in test [5] it was 11.6 µM (inactive); in test [6], 17.1 µM (inactive). Further, the GI50 in test [7] is 14.7 µM (inactive); in test [8], 17.9 µM (inactive); in [9], 26.7 µM (inactive); in [10], 14.8 µM (inactive); in [11], 19.3 µM (inactive); in test [12], 14.9 µM (inactive). Further, the GI50 in test [13] is 14.3 µM (inactive); in test [14], 15.5 µM (inactive); in [15] it was 15 µM; in test [16] it was 20.6 µM (inactive); in test [17] it was 16 µM (inactive); in test [18], 16.8 µM (inactive). Besides, the GI50 in [19] is 10.3 µM (inactive); in [20], 17.9 µM (inactive).

As for `CC(C)(C)C(=O)C(Cc1ccccc1)C(=O)C(C)(C)C`, the GI50 in test [1] is > 100 µM (inactive); in [2] it was > 100 µM (inactive); in test [3], > 100 µM (inactive); in test [4] it was > 100 µM (inactive); in [5] it was 98.6 µM (inactive); in test [6] it was > 100 µM (inactive). For the same molecule, the GI50 in test [7] was 52.6 µM (inactive); in test [8], > 100 µM (inactive); in test [9] it was > 100 µM (inactive); in test [10], > 100 µM (inactive); in test [11], > 100 µM (inactive); in [12] it was 51.6 µM (inactive). Also, the GI50 in test [13] is 98.4 µM (inactive); in test [14], > 100 µM (inactive); in [15] it was above 100 µM; in [16], > 100 µM (inactive); in test [17] it was > 100 µM (inactive); in test [18], > 100 µM (inactive). The GI50 in test [19] was 29.6 µM (inactive); in test [20], > 100 µM (inactive).

For `N/C(=N\N/C=C1\C=Nc2cc(C(F)(F)F)ccc2C1=O)NO`, the GI50 in test [1], in test [2], in [3], in [4], in [5] and in test [6] was > 10 µM (inactive) each time. Moreover, the GI50 in [7] was > 10 µM (inactive); in [8], 0.001 µM (active); in test [9], > 10 µM (inactive); in test [10], > 10 µM (inactive); in test [11], > 10 µM (inactive); in test [12], > 10 µM (inactive). The GI50 is > 10 µM (inactive) in test [13]; > 10 µM (inactive) in test [14]; above 10 µM in [15]; > 10 µM (inactive) in [16]; > 10 µM (inactive) in test [17]; > 10 µM (inactive) in test [18]. In addition, the GI50 in [19] and in [20] was > 10 µM (inactive) each time.

On to `COc1ccc(-c2cc(=O)c3c(O)c(OC)c(O)cc3o2)cc1O`, for which the GI50 is 68.2 µM (inactive) in test [1]; 3.79 µM (inactive) in test [2]; 3.08 µM (inactive) in test [3]; 13.8 µM (inactive) in test [4]; 9.4 µM (inactive) in [5]; 2.69 µM (inactive) in test [6]. The GI50 was 3.48 µM (inactive) in test [7]; 3.18 µM (inactive) in test [8]; 13.9 µM (inactive) in test [9]; 22.5 µM (inactive) in test [10]; 6.4 µM (inactive) in test [11]; 2.69 µM (inactive) in test [12]. The GI50 in test [13] is 1.97 µM (inactive); in test [14], 13.6 µM (inactive); in test [15], 1.9 µM; in test [16], 6.68 µM (inactive); in [17], 4.62 µM (inactive); in [18] it was 2.83 µM (inactive). In addition, the GI50 in test [19] is 15 µM (inactive); in test [20], 3.13 µM (inactive).

(Values after ChEMBL document CHEMBL1201862, “PubChem BioAssay data set” (2004).)
